Test results published in patent US20260015350A1, “AZAQUINAZOLINE PAN-KRAS INHIBITORS” (Mirati Therapeutics, Inc., priority 2022, published 2026).
Blank lines part the entries; values can stand above or below the compound they belong to.

Experiments:
KRas^G12D = target: T1, KRas^G12D (Homo sapiens, UniProt P01116, G12D); experiment: KRas binding assay (TR-FRET tracer displacement), KRas G12D
T1 construct: Biotinylated KRas (corresponding to amino acids 1-169, produced at Accelegan Inc.); biotin (biotinylated); purchased Accelegan Inc
T1 sequence (P01116 1-169 isoform P01116-2 G12D): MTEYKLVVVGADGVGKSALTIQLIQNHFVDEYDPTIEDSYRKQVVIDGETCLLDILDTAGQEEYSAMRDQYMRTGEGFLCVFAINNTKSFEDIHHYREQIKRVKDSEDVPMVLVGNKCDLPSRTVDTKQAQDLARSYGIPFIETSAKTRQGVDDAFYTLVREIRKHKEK

[1] = system: KRas-mediated phosphorylation of ERK in H2009 cells; experiment: Inhibition of KRas-mediated phosphorylation of ERK (Cisbio HTRF pERK), H2009 cells; type: cell-based; settings: Homo sapiens, NCI-H2009
Protocol: Inhibition of KRas Phosphorylation of ERK (HTRF) by Exemplary Compounds of Formula (I)
Cisbio HTRF Advanced PERK Assay Catalog #64AERPEH
1. To harvest cells from flask using 0.05% Trypsin/EDTA solution. Add 10 mL of media to stop trypsinizing. Pipette the cells into a conical bottom 50 mL centrifuge tube and centrifuge 5 min×1000 rpm.
2. Re-suspend the cell pellet in media, take a cell count, and then adjust the cell density using fresh media.
3. Seed 6,000 cells into cell culture plate with 50 μL media. […]
4. Incubate cell plate overnight in a 37° C., 5% CO2 incubator.
1. Use Tecan to complete the compound addition. Compounds start from 10 uM top, 3-fold dilution, and 10 doses. The final DMSO concentration is 0.8%. Dispensed 0.2 uM Trametinib as Min control.
2. Incubate cell plate for 3 hrs in the incubator.
Detection with Cisbio pERK HTRF Kit
1. Dilute 1 volume of 4× lysis buffer with 3 volumes of deionized water. Then, add 100× the blocking reagent. Keep lysis buffer on the ice.
2. At the end of the compound treatment, flick-off the media.
3. Add 35 μL of lysis buffer per well using a Multidrop Combi. Then place on a plate agitator shaking at 300 rpm at 4° C. for 40 mins.
4. Make up the HTRF antibody buffer. For each assay plate, mix 50 μL of d2-conjugate antibody with 950 μL of detection buffer. Similarly, mix 50 μL of Cryptate antibody with 950 μL of detection buffer. Then mix the two diluted antibodies together.
5. Dispense 3.4 μL the antibody buffer to wells of an empty assay plate. Seal the plate and centrifuge plate 30 sec×1000 rpm.
6. At the end of the 4° C. lysis, centrifuge the lysate plates 3 mins×1500 rpm.
7. Use the Bravo to transfer 13.6 μL of lysate from cell culture plate to assay plate. Then incubate assay plate for 2 hrs at room temperature.
8. At the end of incubation, read plate on the Envision after centrifuging plate 30 sec×1000 rpm.

[2] = system: KRas-mediated phosphorylation of ERK in PSN1 cells; experiment: Inhibition of KRas-mediated phosphorylation of ERK (Cisbio HTRF pERK), PSN1 cells; type: cell-based; settings: Homo sapiens
Summary of the method: (§1)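 Phospho-ERK is quantified by HTRF with the Advanced pERK kit. Cells go in at 6,000/well in RPMI plus 10% FBS overnight at 37° C. under 5% CO2, with a 4-hour covered room-temperature incubation ahead of the read.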

[3] = system: KRas-mediated phosphorylation of ERK in A549 cells; experiment: Inhibition of KRas-mediated phosphorylation of ERK (Cisbio HTRF pERK), A549 cells; type: cell-based; settings: Homo sapiens, HTRF pERK
Summary of the method: (§2)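 Using 6,000 cells per well, compounds are applied for 3 hrs and cells then lysed at 4° C with shaking for 40 mins. Phospho-ERK is measured by HTRF after 2 hrs of lysate incubation with the d2/Cryptate antibody mixture.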

[4] = system: KRas-mediated phosphorylation of ERK in H358 cells; experiment: Inhibition of KRas-mediated phosphorylation of ERK (Cisbio HTRF pERK), H358 cells; type: cell-based; settings: Homo sapiens, NCI-H358, HTRF pERK
Summary of the method: (§3)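 Following a 3-hr exposure of cells to serially diluted compound (from 10 uM, 3-fold, 10 doses), cold lysis for 40 mins preceded a 2-hr room-temperature HTRF immunoassay for phosphorylated ERK.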

[5] = system: KRas-mediated phosphorylation of ERK in HCT116 cells; experiment: Inhibition of KRas-mediated phosphorylation of ERK (Cisbio HTRF pERK), HCT116 cells; type: cell-based; settings: Homo sapiens, HCT-116, HTRF pERK
Summary of the method: as §2

[6] = system: KRas-mediated phosphorylation of ERK in H727 cells; experiment: Inhibition of KRas-mediated phosphorylation of ERK (Cisbio HTRF pERK), H727 cells; type: cell-based; settings: Homo sapiens, NCI-H727, H727 cells; HTRF pERK
Summary of the method: as §3

KRas^G12R = target: T2, KRas^G12R (Homo sapiens, UniProt P01116, G12R); experiment: KRas binding assay (TR-FRET tracer displacement), KRas G12R
T2 construct: Biotinylated KRas (corresponding to amino acids 1-169, produced at Accelegan Inc.); biotin (biotinylated); purchased Accelegan Inc
T2 sequence (P01116 1-169 isoform P01116-2 G12R): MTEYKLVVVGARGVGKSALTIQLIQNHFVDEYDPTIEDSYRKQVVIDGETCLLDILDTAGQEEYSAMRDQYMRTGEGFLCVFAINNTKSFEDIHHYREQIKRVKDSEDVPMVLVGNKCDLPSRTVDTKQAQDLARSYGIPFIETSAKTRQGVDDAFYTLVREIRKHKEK

[7] = system: KRas-mediated phosphorylation of ERK in MKN1 cells; experiment: Inhibition of KRas-mediated phosphorylation of ERK (Cisbio HTRF pERK), MKN1 cells; type: cell-based; settings: Homo sapiens, MKN-1
Summary of the method: as §1

[8] = system: KRas-mediated phosphorylation of ERK in AsPC-1 cells; experiment: Inhibition of KRas-mediated phosphorylation of ERK (Cisbio HTRF pERK), AsPC-1 cells; type: cell-based; settings: Homo sapiens, ASPC1, AsPC-1 cells; HTRF pERK
Summary of the method: as §3

[9] = system: KRas-mediated phosphorylation of ERK in H460 cells; experiment: Inhibition of KRas-mediated phosphorylation of ERK (Cisbio HTRF pERK), H460 cells; type: cell-based; settings: Homo sapiens, NCI-H460, HTRF pERK
Summary of the method: as §3

KRas^G12V = target: T3, KRas^G12V (Homo sapiens, UniProt P01116, G12V); experiment: KRas binding assay (TR-FRET tracer displacement), KRas G12V
T3 construct: Biotinylated KRas (corresponding to amino acids 1-169, produced at Accelegan Inc.); biotin (biotinylated); purchased Accelegan Inc
T3 sequence (P01116 1-169 isoform P01116-2 G12V): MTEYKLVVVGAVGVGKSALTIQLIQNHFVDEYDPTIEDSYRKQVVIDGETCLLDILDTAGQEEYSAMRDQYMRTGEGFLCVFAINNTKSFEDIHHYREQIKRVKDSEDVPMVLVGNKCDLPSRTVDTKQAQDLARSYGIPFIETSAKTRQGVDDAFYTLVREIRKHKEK

KRas^WT = target: T4, KRas^WT (Homo sapiens, UniProt P01116); experiment: KRas binding assay (TR-FRET tracer displacement), KRas WT; settings: TR-FRET tracer displacement, KRas WT
T4 construct: Biotinylated KRas (corresponding to amino acids 1-169, produced at Accelegan Inc.); biotin (biotinylated); purchased Accelegan Inc
T4 sequence (P01116 1-169 isoform P01116-2): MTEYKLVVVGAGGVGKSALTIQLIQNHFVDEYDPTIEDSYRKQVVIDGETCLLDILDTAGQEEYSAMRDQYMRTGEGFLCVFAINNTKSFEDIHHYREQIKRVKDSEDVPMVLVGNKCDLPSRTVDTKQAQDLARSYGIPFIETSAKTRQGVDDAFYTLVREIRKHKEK

KRas^G12S = target: T5, KRas^G12S (Homo sapiens, UniProt P01116, G12S); experiment: KRas binding assay (TR-FRET tracer displacement), KRas G12S; settings: TR-FRET tracer displacement, KRas G12S
T5 construct: Biotinylated KRas (corresponding to amino acids 1-169, produced at Accelegan Inc.); biotin (biotinylated); purchased Accelegan Inc
T5 sequence (P01116 1-169 isoform P01116-2 G12S): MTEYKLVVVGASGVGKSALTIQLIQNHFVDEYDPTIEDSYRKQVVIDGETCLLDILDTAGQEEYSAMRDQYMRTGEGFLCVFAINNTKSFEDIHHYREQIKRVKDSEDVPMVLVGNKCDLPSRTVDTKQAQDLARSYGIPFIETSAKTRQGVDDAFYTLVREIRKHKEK

KRas^G12C = target: T6, KRas^G12C (Homo sapiens, UniProt P01116, G12C); experiment: KRas binding assay (TR-FRET tracer displacement), KRas G12C; settings: TR-FRET tracer displacement, KRas G12C
T6 construct: Biotinylated KRas (corresponding to amino acids 1-169, produced at Accelegan Inc.); biotin (biotinylated); purchased Accelegan Inc
T6 sequence (P01116 1-169 isoform P01116-2 G12C): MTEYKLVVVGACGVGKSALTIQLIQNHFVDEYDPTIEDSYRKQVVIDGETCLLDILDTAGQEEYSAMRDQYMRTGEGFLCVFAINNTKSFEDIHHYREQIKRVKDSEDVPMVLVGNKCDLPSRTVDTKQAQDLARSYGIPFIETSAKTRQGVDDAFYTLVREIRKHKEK

SMILES: C[C@@H]1C[C@@H]1c1c(Cl)cc(O)cc1-c1ncc2c(N3CC4CCC(C3)N4)nc(OC[C@@]34CCCN3C/C(=C\F)C4)nc2c1F [Example 806, 3-(4-(3,8-diazabicyclo[3.2.1]octan-3-yl)-8-fluoro-2-(((S,Z)-2-(fluoromethylene)tetrahydro-1H-pyrrolizin-7a(5H)-yl)methoxy)pyrido[4,3-d]pyrimidin-7-yl)-5-chloro-4-(cis-2-methylcyclopropyl)phenol]
IC50 (KRas^G12D): < 2 nM | IC50 [1]: 29 nM | IC50 (KRas^WT): 4 nM | IC50 [3]: 139 nM | IC50 [4]: 43 nM | IC50 [5]: 129 nM | IC50 [6]: 364 nM | IC50 [7]: 19 nM | IC50 [8]: 2 nM | IC50 [9]: 107 nM | IC50 (KRas^G12S): 2 nM | IC50 (KRas^G12V): 4 nM | IC50 (KRas^G12C): 3 nM

SMILES: C=C1CN2CCCC2(COc2nc(N3CCCC4(CCO4)C3)c3cnc(-c4cc(O)cc5ccc(F)c(CC)c45)c(F)c3n2)C1 (stereo not drawn) [Example 941, 5-ethyl-6-fluoro-4-(8-fluoro-2-((2-methylenetetrahydro-1H-pyrrolizin-7a(5H)-yl)methoxy)-4-(1-oxa-6-azaspiro[3.5]nonan-6-yl)pyrido[4,3-d]pyrimidin-7-yl)naphthalen-2-ol]
IC50 (KRas^G12D): < 2 nM | IC50 [1]: 1 nM | IC50 (KRas^WT): < 2 nM | IC50 [3]: 2 nM | IC50 [4]: 1 nM | IC50 [5]: 3 nM | IC50 [6]: 2 nM | IC50 [7]: 0.1 nM | IC50 [8]: 1 nM | IC50 [9]: 2 nM | IC50 (KRas^G12S): < 2 nM | IC50 (KRas^G12V): < 2 nM | IC50 (KRas^G12C): < 2 nM

SMILES: C[C@@H]1C[C@@H]1c1c(Cl)cc(O)cc1-c1ncc2c(N3CCC[C@@](C)(O)C3)nc(OC[C@@]34CCCN3C/C(=C\F)C4)nc2c1F [Example 944, (R)-1-(7-(3-chloro-5-hydroxy-2-((1S,2R)-2-methylcyclopropyl)phenyl)-8-fluoro-2-(((S,Z)-2-(fluoromethylene)tetrahydro-1H-pyrrolizin-7a(5H)-yl)methoxy)pyrido[4,3-d]pyrimidin-4-yl)-3-methylpiperidin-3-ol]
IC50 (KRas^G12D): < 2 nM | IC50 [1]: 1 nM | IC50 (KRas^WT): < 2 nM | IC50 [3]: 6 nM | IC50 [4]: 1 nM | IC50 [5]: 6 nM | IC50 [6]: 6 nM | IC50 [8]: 2 nM | IC50 [9]: 3 nM | IC50 (KRas^G12S): < 2 nM | IC50 (KRas^G12V): < 2 nM | IC50 (KRas^G12C): < 2 nM

The remaining lines, values ahead:

IC50 (KRas^G12D): < 2 nM | IC50 [1]: 1 nM | IC50 [2]: 80 nM | IC50 [3]: 1 nM | IC50 [4]: 1 nM | IC50 [5]: 2 nM | IC50 [6]: 2 nM | IC50 (KRas^G12R): < 2 nM | IC50 [7]: 0.1 nM | IC50 [8]: 1 nM | IC50 [9]: 1 nM | IC50 (KRas^G12V): < 2 nM
SMILES: CCc1c(F)ccc2cc(O)cc(-c3ncc4c(N5CCC[C@@](C)(O)C5)nc(OC[C@@]56CCCN5C/C(=C\F)C6)nc4c3F)c12 [Example 791, (R)-1-(7-(8-ethyl-7-fluoro-3-hydroxynaphthalen-1-yl)-8-fluoro-2-(((S,Z)-2-(fluoromethylene)tetrahydro-1H-pyrrolizin-7a(5H)-yl)methoxy)pyrido[4,3-d]pyrimidin-4-yl)-3-methylpiperidin-3-ol]

IC50 (KRas^G12D): < 2 nM | IC50 [1]: 1 nM | IC50 (KRas^WT): < 2 nM | IC50 [3]: 3 nM | IC50 [4]: 1 nM | IC50 [5]: 7 nM | IC50 [6]: 4 nM | IC50 [7]: 0.2 nM | IC50 [8]: 9 nM | IC50 [9]: 4 nM | IC50 (KRas^G12S): < 2 nM | IC50 (KRas^G12V): < 2 nM | IC50 (KRas^G12C): < 2 nM
SMILES: C/C=C1\CN2CCCC2(COc2nc(N3C[C@@H]4C[C@H](C3)[C@H](O)C4)c3cnc(-c4cc(O)cc5ccc(F)c(CC)c45)c(F)c3n2)C1 (stereo partly drawn) [Example 938, (1R,5R,6R)-3-(7-(8-ethyl-7-fluoro-3-hydroxynaphthalen-1-yl)-2-(((Z)-2-ethylidenetetrahydro-1H-pyrrolizin-7a(5H)-yl)methoxy)-8-fluoropyrido[4,3-d]pyrimidin-4-yl)-3-azabicyclo[3.2.1]octan-6-ol]
